The target in experiment [1] is T1, α2-receptors of the rat vas deferens (Rattus norvegicus, UniProt P22909).
T1 construct: from tissue; host or cells: rat vas deferens
T1 sequence (P22909 1-465): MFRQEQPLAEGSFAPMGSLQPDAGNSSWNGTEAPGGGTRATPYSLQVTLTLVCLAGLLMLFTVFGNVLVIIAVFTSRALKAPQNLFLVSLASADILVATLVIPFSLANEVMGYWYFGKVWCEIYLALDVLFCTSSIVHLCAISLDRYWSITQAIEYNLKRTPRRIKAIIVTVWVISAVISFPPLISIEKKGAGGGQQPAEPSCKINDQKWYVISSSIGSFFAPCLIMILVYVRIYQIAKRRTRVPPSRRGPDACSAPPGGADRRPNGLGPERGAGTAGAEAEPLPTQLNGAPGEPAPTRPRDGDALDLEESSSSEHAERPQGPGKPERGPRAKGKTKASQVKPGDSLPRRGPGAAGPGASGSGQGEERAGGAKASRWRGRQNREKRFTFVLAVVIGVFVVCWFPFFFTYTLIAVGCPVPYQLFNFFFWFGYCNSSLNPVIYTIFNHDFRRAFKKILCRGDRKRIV
Put plainly: Antagonism of α2-receptors of the rat vas deferens (xylazine as agonist). To be noted: for Kb: read-out: pA2 (α2, rat vas deferens) (converted). The experiment is classed as biochemical. How it is done:
The action of known α-adrenergic receptor-blocking agents and the
formula (I) on the α2 -receptors of the rat vas deferens
(xylazine as agonist) and of the
The tissues were suspended at 37° C. in an organ bath containing 5 ml of Krebs solution. […] Both the compounds of formula (I) and the reference substances were tested against xylazine (on the rat vas daferens) as well as against […] (on the longitudinal smooth muscle preparation from the guinea pig ileum). The amplitude of the contraction response caused by the stimulation is inhibited on the α2 -adrenergic receptors by xylazine or norepinephrine.

The target of experiment [2] is α1-receptors of the pulmonary artery of rabbit. Put plainly: Antagonism of α1-receptors of the pulmonary artery of rabbit (norepinephrine as agonist). In kind it is biochemical. The note with it: compounds of formula (I) as hydrochlorides. The text has this:
On the α1 -receptors of the pulmonary artery, a contraction is elicited by norepinephrine which is inhibited by antagonists.

Experiment [3] concerns the target T2, α1-receptors of the rat vas deferens (Rattus norvegicus, UniProt P43140).
T2 construct: from tissue; host or cells: rat vas deferens
T2 sequence (P43140 1-466): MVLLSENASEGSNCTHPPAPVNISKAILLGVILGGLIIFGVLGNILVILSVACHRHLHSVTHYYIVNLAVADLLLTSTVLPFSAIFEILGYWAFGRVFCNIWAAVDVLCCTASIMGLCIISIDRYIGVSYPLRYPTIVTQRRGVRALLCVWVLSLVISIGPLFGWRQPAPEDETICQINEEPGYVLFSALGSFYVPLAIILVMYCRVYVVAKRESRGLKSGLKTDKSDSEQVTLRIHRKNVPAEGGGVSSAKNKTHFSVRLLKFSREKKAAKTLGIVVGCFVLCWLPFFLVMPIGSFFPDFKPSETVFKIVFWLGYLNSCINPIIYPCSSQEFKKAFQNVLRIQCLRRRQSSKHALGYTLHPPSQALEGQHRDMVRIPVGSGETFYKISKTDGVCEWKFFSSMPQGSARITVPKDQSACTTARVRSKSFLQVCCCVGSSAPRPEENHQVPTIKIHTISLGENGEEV
Kind of experiment: Antagonism of α1-receptors of the rat vas deferens (phenylephrine as agonist). In kind it is biochemical. Further details: key to nature of the competition (α1, rat vas deferens): NC means non-competitive; C means competitive. The note with it: for Kb: compounds of formula (I) as hydrochlorides, read-out: pA2 (α1, rat vas deferens) (converted). How it is done: Phenylephrine was used as agonist on the α1 -adrenergic receptors whereby both the rat vas deferens and the pulmonary artery of the rabbit were contracted. […] The pA2 value was determined by using the method of Arunlakshana and Schield (1959) cited above. The nature of the competition is also given (NC means non-competitive, C means competitive).

Experiment [4] relates to dopamine turnover in the striatum. Kind of experiment: Dopamine turnover in the striatum after α-methyl-p-tyrosine. The experiment is classed as in vivo, rat. The note with it: for Kb (fractional rate constant) / Tt (catecholamine turnover time) / TRCA (catecholamine turnover rate): DA, with α-MPT; for TRCA (catecholamine turnover rate): ** p 0.01 vs control; for DA content: α-MPT 320 mg/kg i.p. pre-treatment, 4 animals. The protocol: (§1) Male rates with 100 g of body-weight were intraperitoneally pre-treated (at minute 0) with 320 mg/kg of α-methyl-p-tyrosine. […] After centrifuging, the norepinephrine content (frontal cortex) or the dopamine content (striatum) of the supernatant, respectively, was determined by using the method of the […] liquid chromatography-electrochemical detection. […] The significance level of the difference related to the control group was also determined (** p 0.01; *** p 0.001).

Experiment [5] relates to norepinephrine turnover in the frontal cortex. Kind of experiment: Norepinephrine turnover in the frontal cortex after α-methyl-p-tyrosine. The experiment is classed as in vivo, rat. To be noted: for Kb (fractional rate constant) / Tt (catecholamine turnover time) / TRCA (catecholamine turnover rate): NE, with α-MPT; for TRCA (catecholamine turnover rate): ** p 0.01, *** p 0.001 vs control; for NE content: α-MPT 320 mg/kg i.p. pre-treatment, 4 animals. The protocol:
as §1

Experiment [6] deals with α1-receptors of the pulmonary artery of rabbit. Kind of experiment: Antagonism of α1-receptors of the pulmonary artery of rabbit (phenylephrine as agonist). In kind it is biochemical. To be noted: compounds of formula (I) as hydrochlorides. The protocol: The action of known α-adrenergic receptor-blocking
on the α1 -receptors of the rat vas deferens and of
the pulmonary artery of rabbit against phenylephrine
Phenylephrine was used as agonist on the α1 -adrenergic receptors whereby both the rat vas deferens and the pulmonary artery of the rabbit were contracted. This concractile effect was inhibited by antagonists. The pA2 value was determined by using the method of Arunlakshana and Schield (1959) cited above. The nature of the competition is also given (NC means non-competitive, C means competitive).

In experiment [7] the test system is α2-receptors (vs α1-receptors) of the rat vas deferens. Kind of experiment: Selectivity against the α2-receptors on the rat vas deferens (from Tables 1 and 2). The experiment is classed as biochemical. To be noted: calculated from Tables 1 and 2, hydrochlorides. The source says: The pA2 values concerning the α1 -receptor of the antagonists were divided by the pA2 values concerning the α2 -receptor of the antagonists (α1 /α2).

The mark [8] stands for this setting: xylazine as agonist, compounds of formula (I) as hydrochlorides, (n) in brackets.

Structures can show the parent of a compound that is named as a salt. Where two headings read alike, the source gives them in different places.

On to `Oc1cc2c(cc1O)[C@H]1C[C@H]3C[C@@H](O)CC[C@H]3CN1CC2` (relative stereo) [As hydrobromide], for which, in experiment [1], the “Relative activity, vas deferens” value was 0.01. The “pA2 (α2, rat vas deferens)” value in experiment [1] (setting [8]) was 5.74 ± 0.11.

As for `CCOc1cc2c(cc1OCC)[C@H]1C[C@H]3C[C@@H](O)CC[C@H]3CN1CC2` (relative stereo) [Example 11, 14β-hydroxy-7,8-diethoxyalloberban], the “Relative activity, vas deferens” value in experiment [1] is 0.05. Also, the Kb in experiment [1] (setting [8]) is 380 nM.

In the case of `O[C@H]1CC[C@H]2CN3CCc4cc5c(cc4[C@H]3C[C@H]2C1)OCO5` (relative stereo) [Example 25, 14β-hydroxy-7,8-methylenedioxyalloberban], the “pA2 (α1, pulmonary artery of rabbit)” value in experiment [2] was found to be 4.83 ± 0.52. In experiment [3], the “nature of the competition (α1, rat vas deferens)” value (shortened to “nature of the competition”) is “NC” and the Kb is 14100 nM.

As to `O[C@@H]1CC[C@H]2CN3CCc4cc5c(cc4[C@H]3C[C@H]2C1)OCO5` (relative stereo) [Example 26, 14α-hydroxy-7,8-methylenedioxyalloberban], in experiment [2], the “pA2 (α1, pulmonary artery of rabbit)” value was determined as 5.29 ± 0.20. Moreover, in experiment [4], the “Kb (fractional rate constant)” value came out at 0.776 h⁻¹; the “Tt (catecholamine turnover time)” value came out at 1.28 h; the “TRCA (catecholamine turnover rate)” value is 37.27 ± 3.62 nmole/g, h^-1; the DA content was 48.03 ± 4.66 nmol/g. In addition, in experiment [3], the “nature of the competition” value is reported as “NC” and the Kb was 11200 nM. Moreover, in experiment [5], the “Kb (fractional rate constant)” value came to 0.740 h⁻¹; the “Tt (catecholamine turnover time)” value was found to be 1.35 h; the “TRCA (catecholamine turnover rate)” value was 0.64 ± 0.03 nmole/g, h^-1; the NE content was found to be 0.87 ± 0.05 nmol/g.

For `COC(=O)C1C(O)CCC2CN3CCc4cc5c(cc4C3CC21)OCO5` (stereo not drawn) [Example 1, methyl 14-β-hydroxy-7,8-methylenedioxy-alloberban-13-carboxylate], the “pA2 (α1, pulmonary artery of rabbit)” value in experiment [6] was 4.68 ± 0.27. In addition, in experiment [3], the “nature of the competition” value is listed as “NC” and the Kb was 661 nM.

On to `COC(=O)C1C(O)CCC2CN3CCc4cc5c(cc4C3CC21)OCO5` (stereo not drawn) [Example 6, methyl 14α-hydroxy-7,8-methylenedioxyberban-13-carboxylate], for which, in experiment [6], the “pA2 (α1, pulmonary artery of rabbit)” value came out at 4.61 ± 0.2.

Turning to `CCOC(=O)C1C(O)CCC2CN3CCc4cc5c(cc4C3CC21)OCO5` (stereo not drawn) [Example 17, ethyl 14β-hydroxy-7,8-methylenedioxyalloberban-13-carboxylate], in experiment [3], the “nature of the competition” value is recorded as “NC” and the Kb was 3090 nM.

On to `c1ccc2c(c1)OCC(C1=NCCN1)O2` (centres unmarked) [Idazoxan, reference compound], for which, in experiment [2], the “pA2 (α1, pulmonary artery of rabbit)” value worked out at 6.03 ± 0.11. In experiment [3], the “nature of the competition” value was “NC” and the Kb was 1000 nM.

`CCn1ccnc1CC1COc2ccccc2O1` (centres unmarked) [Imiloxan, reference compound]: the “Selectivity α1/α2” value in experiment [7] is 0.36. In experiment [1] (setting [8]), the Kb was 145 nM. The “Relative activity, vas deferens” value in experiment [1] (α2-inhibiting effect relative to yohimbine = 1.0) came to 0.13. Also, in experiment [3], the “nature of the competition” value was “NC” and the Kb was 52.5 nM.

Consider `Cc1ccc(N(CC2=NCCN2)c2cccc(O)c2)cc1` [Phentolamine, reference compound], for which the “nature of the competition” value in experiment [3] was “C”.

Take `COC(=O)[C@@H]1[C@H]2C[C@H]3c4[nH]c5ccccc5c4CCN3C[C@@H]2CC[C@@H]1O` [Yohimbine, reference compound]: the “pA2 (α1, pulmonary artery of rabbit)” value in experiment [2] came out at 5.81 ± 0.37. Also, in experiment [4], the “Kb (fractional rate constant)” value was found to be 0.906 h⁻¹; the “Tt (catecholamine turnover time)” value was 1.10 h; the “TRCA (catecholamine turnover rate)” value is 58.40 ± 5.47 nmole/g, h^-1; the DA content worked out at 64.46 ± 6.04 nmol/g. Moreover, in experiment [6], the “pA2 (α1, pulmonary artery of rabbit)” value is given as 5.59 ± 0.4. The “nature of the competition” value in experiment [3] was “NC”. Further, in experiment [5], the “Kb (fractional rate constant)” value was 0.880 h⁻¹; the “Tt (catecholamine turnover time)” value worked out at 1.13 h; the “TRCA (catecholamine turnover rate)” value is 0.87 ± 0.06 nmole/g, h^-1; the NE content was determined as 0.99 ± 0.07 nmol/g.
